# From US3954767A, “Piperazine salts of 2,5-dihydroxy benzene sulfonic acid mono- and diesters” (priority 1972, dated 1976)
# Where a name gives a salt, the structure may show the parent alone.
# Tested on: rats treated with Triton WR-1339
# Test: Hypolipemic action on the rat, Triton WR-1339 method
# Type: in vivo
# Details: Table VI; with respect to Triton WR-1339; 2 mMoles/Kg orally
# Method: The above-mentioned Triton WR-1339 method was selected. The total cholesterol, triglycerides and total lipids were determined in the serum. The amount of Triton WR-1339 administered to the animals was 300 mg/kg. The amount of piperazine 2,5-dihydroxy benzene sulfonate mono-tosylate administered was 2 mMoles/Kg orally. The letter P signifies probability.
# The above-mentioned Triton WR-1339 method was selected. The total cholesterol, triglycerides and total lipids were determined in the serum. The results obtained are given in Table V. The amount of Triton WR-1339 administered to the animals was 300 mg/Kg. The amount of the piperazine salt with one mole of the di-0-(p-chloro phenoxy isobutyrate) of 2,5-dihydroxy benzene sulfonic acid administered was 1 mMol/Kg orally. The letter P signifies probability.
# In this Triton WR-1339 method, all the compounds are administered at a dose of 2 mMoles/Kg orally excepted those compounds in which is the residue of p-chlorophenoxy isobutyric acid, which are administered orally at a dose corresponding to 2 mMoles of R per Kg, i.e. the amount used is calculated on the basis of the residue R only.
Compound,Percentage reduction of lipids: Cholesterol,Percentage reduction of lipids: Total Lipids,Percentage reduction of lipids: Triglycerides
"O=C(Oc1ccc(OC(=O)c2ccccc2)c(S(=O)(=O)O)c1)c1ccccc1 [piperazine 2,5-dihydroxybenzenesulfonate dibenzoate] [piperazine 2.5-dihydroxybenzenesulphonatedibenzoate]",13%,20%,18%
"Cc1ccc(S(=O)(=O)Oc2ccc(O)c(S(=O)(=O)O)c2)cc1 [sodium 2,5-dihydroxybenzenesulfonate monotosylate] [sodium 2,5-dihydroxy benzene sulfonate mono-tosylate]",10%,39%,36%
"O=C(Oc1ccc(OC(=O)c2ccccc2)c(S(=O)(=O)O)c1)c1ccccc1 [piperazine bis(2,5-dihydroxybenzene sulfonate dibenzoate)] [piperazine bis(2.5-dihydroxybenzenesulphonate dibenzoate)]",9%,16%,14%
"Cc1ccc(S(=O)(=O)Oc2ccc(O)c(S(=O)(=O)O)c2)cc1 [piperazine bis(2,5-dihydroxybenzenesulfonate monotosylate)] [piperazine bis(2.5-dihydroxybenzenesulphonate monotosylate)]",11%,17%,25%
"O=C(Oc1ccc(OC(=O)c2ccccc2)c(S(=O)(=O)O)c1)c1ccccc1 [piperidine 2,5-dihydroxybenzenesulfonate dibenzoate] [piperidine 2.5-dihydroxybenzenesulphonate dibenzoate]",14%,23%,19%
"Cc1ccc(S(=O)(=O)Oc2ccc(O)c(S(=O)(=O)O)c2)cc1 [piperidine bis(2,5-dihydroxybenzenesulfonate monotosylate)] [piperidine 2.5-dihydroxybenzenesulphonate monotosylate]",15%,33%,26%
"O=C(Oc1ccc(O)c(S(=O)(=O)O)c1)c1cccnc1 [pyridine 2,5-dihydroxybenzene sulfonate mono nicotinate]",17%,25%,24%
"O=C(Oc1ccc(OC(=O)c2ccccc2)c(S(=O)(=O)O)c1)c1ccccc1 [diethylamine 2,5-dihydroxybenzenesulfonate dibenzoate] [diethylamine 2.5-dihydroxybenzensulphonate dibenzoate]",12%,22%,14%
"O=C(Oc1ccc(OC(=O)c2ccccc2)c(S(=O)(=O)O)c1)c1ccccc1 [sodium 2,5-dihydroxybenzenesulfonate dibenzoate] [sodium 2.5-dihydroxybenzenesulphonate dibenzoate]",12%,20%,17%
"O=C(Oc1ccc(OC(=O)c2ccccc2)c(S(=O)(=O)O)c1)c1ccccc1 [morpholine 2,5-dihydroxybenzenesulfonate dibenzoate] [morpholine 2.5-dihydroxybenzenesulphonate dibenzoate]",12%,21%,17%

# Same assay, conditions: Table VI; with respect to Triton WR-1339; orally, 2 mMoles of R (p-chlorophenoxy isobutyric acid residue) per Kg
Compound,Percentage reduction of lipids: Cholesterol,Percentage reduction of lipids: Total Lipids,Percentage reduction of lipids: Triglycerides
"CC(C)(Oc1ccc(Cl)cc1)C(=O)Oc1ccc(O)c(S(=O)(=O)O)c1 [mono-salt of piperazine of mono-O-(p-chloro phenoxy isobutyr] [mono-salt of piperazine of mono-O-(p-chlorophenoxy isobutyrate) of 2,5-dihydroxy benzene sulfonic acid]",9%,25%,49%
"CC(C)(Oc1ccc(Cl)cc1)C(=O)Oc1ccc(OC(=O)C(C)(C)Oc2ccc(Cl)cc2)c(S(=O)(=O)O)c1 [calcium salt of di-O-(p-chloro phenoxy isobutyrate) of 2,5-d] [calcium salt of di-O-(p-chlorophenoxy isobutyrate) of 2,5-dihydroxy benzene sulfonic acid]",27%,29%,33%
"CC(C)(Oc1ccc(Cl)cc1)C(=O)Oc1ccc(OC(=O)C(C)(C)Oc2ccc(Cl)cc2)c(S(=O)(=O)O)c1 [piperazine di-salt of di-O-(p-chloro phenoxy isobutyrate) of] [piperazine di-salt of di-O-(p-chlorophenoxy isobutyrate) of 2,5-dihydroxy benzene sulfonic acid]",29%,37%,21%
"CC(C)(Oc1ccc(Cl)cc1)C(=O)Oc1ccc(OC(=O)C(C)(C)Oc2ccc(Cl)cc2)c(S(=O)(=O)O)c1 [piperazine mono-salt of di-O-(p-chloro phenoxy isobutyrate) ] [piperazine mono-salt of di-O-(p-chlorophenoxy isobutyrate) of 2,5-dihydroxy benzene sulfonic acid]",25%,28%,49%
"CC(C)(Oc1ccc(Cl)cc1)C(=O)Oc1ccc(OC(=O)C(C)(C)Oc2ccc(Cl)cc2)c(S(=O)(=O)O)c1 [pyridine salt of di-O-(p-chloro phenoxy isobutyrate) of 2,5-] [pyridine salt of the di-O-(p-chlorophenoxy isobutyrate) of 2,5-dihydroxy benzene sulfonic acid]",20%,31%,32%
"CC(C)(Oc1ccc(Cl)cc1)C(=O)Oc1ccc(O)c(S(=O)(=O)O)c1 [magnesium salt of mono-O-(p-chloro phenoxy isobutyrate) of 2] [magnesium salt of mono-O-(p-chlorophenoxy isobutyrate) of 2,5-dihydroxy benzene sulfonic acid]",19%,28%,44%
"CC(C)(Oc1ccc(Cl)cc1)C(=O)Oc1ccc(O)c(S(=O)(=O)O)c1 [di-salt of piperazine of mono-O-(p-chloro phenoxy isobutyrat] [di-salt of piperazine of mono-O-(p-chlorophenoxy isobutyrate) of 2,5-dihydroxy benzene sulfonic acid]",16%,26%,31%

# Same assay, conditions: Table VI; with respect to Triton WR-1339; orally, 2 mMoles of R (p-chlorophenoxy isobutyric acid residue) per Kg; dihydrate
Compound,Percentage reduction of lipids: Cholesterol,Percentage reduction of lipids: Total Lipids,Percentage reduction of lipids: Triglycerides
"CC(C)(Oc1ccc(Cl)cc1)C(=O)Oc1ccc(O)cc1S(=O)(=O)O [magnesium 2-O-(p-chlorophenoxyisobutyryl) 2,5-dihydroxybenzene sulfonate dihydrate]",18%,27%,21%

# Same assay, conditions: Triton 300 mg/Kg + compound 1 mMol/Kg orally; 0,0025<P<0,005
row,Compound,total cholesterol
1,"CC(C)(Oc1ccc(Cl)cc1)C(=O)Oc1ccc(OC(=O)C(C)(C)Oc2ccc(Cl)cc2)c(S(=O)(=O)O)c1 [piperazine mono-salt of di-O-(p-chloro phenoxy isobutyrate) ] [piperazine mono-salt of di-O-(p-chlorophenoxy isobutyrate) of 2,5-dihydroxy benzene sulfonic acid]","212,5 mg % ml of plasma"

# Same assay, conditions: Triton 300 mg/Kg + compound 1 mMol/Kg orally; 0,005<P<0,010
Compound,total lipids,triglycerides
"CC(C)(Oc1ccc(Cl)cc1)C(=O)Oc1ccc(OC(=O)C(C)(C)Oc2ccc(Cl)cc2)c(S(=O)(=O)O)c1 [piperazine mono-salt of di-O-(p-chloro phenoxy isobutyrate) ] [piperazine mono-salt of di-O-(p-chlorophenoxy isobutyrate) of 2,5-dihydroxy benzene sulfonic acid]","1503,8 mg % ml of plasma","572,5 mg % ml of plasma"
